# Assay results taken from US12509734B2, “Systems and methods to assess microbiomes and treatments thereof” (priority 2013, dated 2025).
# Key:
# bacterial vaginosis (BV) = experiment: Clinical assessment of BV patients after therapy (Amsel criteria, Nugent score, recurrence); assay type: in vivo, human
# Source text: Patients. Five African American participants were followed at the Vaginitis Clinic at Wayne State University and had been treated for recurrent episodes symptomatic bouts of BV. Patients were enrolled after protocol explanation and written informed consent was obtained. The study was endorsed by the Human Investigational Review Board of Wayne State University. At the time of enrollment, patients were diagnosed with florid symptomatic acute BV, characterized by the presence of at least 3 of the 4 Amsel criteria (homogeneous vaginal discharge, pH elevated above 4.5, clue cells>20%, positive whiff test) and Nugent scores of at least 8.
# At this immediate PT visit, patients were given Catch-All Sample Collection Swabs (Epicentre Biotechnologies, Madison, WI) and 15 mL conical tubes for vaginal specimen self-collection. […] Samples from a previously characterized group of recurrent BV patients, sampled before and after treatment, were also evaluated by Lb-qPCR. Reichman et al., Sexually Transmitted Diseases 36: 732-734, 2009.
# vaginal microbiota = experiment: 16S-C&S (broad-spectrum clone and sequence) with and without LB-blocking of acute BV and post-tinidazole lavages (Tables 3C, 3D); assay type: in vivo, human
# Source text: Amplicon cloning. Amplicon cloning. Broad-spectrum PCR targets were amplified for varying cycle numbers, typically Cp plus 1 or 2 cycles to achieve a “just visible” product on an agarose ethidium-bromide gel. Amplicons derived from PB primers were sequenced directly with the rationale that any species present at 5-10× others amplified by the same PB primer would generate a single, readable sequence; amplicons from PB primers that were unreadable as uncloned amplicons were cloned after nested PCR. They were amplified to maximum fluorescence or maximum cycles for that primer. Products were cleaned by ultrafiltration with the MONTAGE™ PCR kit UFC7PCR50 (Millipore) or QIAQUICK® PCR purification kit (QIAGEN®). One to three microliters of the 20 μl purified product was ligated into pGEM-T Easy vector using the PGEM-T™ Easy Ligation Kit (Promega) according to the manufacturer's specifications. The ligation reaction was carried out for from 4 hours to overnight at 4° C. Forty microliters of E. coli cells (strain XL1-BLUE®, Stratagene) were electroporated using a BioRad GenePulser and Pulse Controller (set at 2.5 kV, 25 μFD capacitance, and 200 ohms resistance) with 1 μl of the ligation, allowed to recover in LB broth 1 h at 37° C., then plated onto LB agar plus 100 μg/ml ampicillin with 0.1 mM IPTG and 20 μg/ml X-gal and grown overnight at 37° C. White colonies and a few blue control colonies were picked from the plates into 100 μl of 15% glycerol or TE, incubated at 94° C. for 5 m; 2 μl of this was amplified in 8 μl of reaction buffer as described, using primers that flank the cloning site in the vector (pUC-F […] (SEQ ID NO: 88), pUC-R […] (SEQ ID NO: 89); 95° C. (1 m), [95° C. (30 s), 45° C. (30 s), 72° C. (30 s)] for 40 cycles, 72° C. (5 m). Extension times for cloned amplicons from PB primers were adjusted as appropriate for each amplicon size according to Tables 3A-3D. An aliquot of each amplicon was tested by agarose gel electrophoresis.
# Sequencing and analysis. Full length amplicons (5 μl) were enzymatically cleaned using a 5 μl solution of 0.1 units of NTPhos thermolabile phosphatase and 1 unit of Exonuclease I (Epicentre Biotechnologies), in 20 mM Tris pH 8.3, 50 mM KCl and 10 mM MgCl2 (1×PCR reaction buffer, Invitrogen), incubated at 37° C. for 15 m, then inactivated at 80° C. for 15 m, and used for sequencing. Mini-libraries were constructed from amplicons with co-dominant species (which generate mixed template reads when uncloned); 17 mini-libraries each averaging 11 sequences were sequenced. Enzymatically cleaned amplicons were sequenced with the same primers used for amplification, or T7 for cloned amplicons (Functional Biosciences, Inc.). Sequences were uploaded to Ribosomal Database Project II using the Pipeline function in MyRDP for trimming, quality scoring, alignment, and identification. Only base calls with PHRED quality scores (Q) above 20 were considered. A small number of high quality sequences were rejected by the website as non-ribosomal and were not considered further in this analysis. Aligned sequences, their closest hits via SeqMatch, and manually selected reference species, were downloaded from myRDP, manually trimmed to common 5′ and 3′ ends, and analyzed with Molecular Evolutionary Genetics Analysis (MEGA4 and MEGA5) software. From this, trees were constructed using the bootstrapped Neighbor-Joining method or the Maximum Composite Likelihood method, and used for species identification.
# Compositions determined by 16S-C&S were simply tallies of sequences in each taxa, defined here as those with >97% identity. These tallies were adjusted in libraries from LB-blocked PCR with a correction factor. To determine this factor, the titers of Gardnerella and LB were independently determined with and without blocking by PB-qPCR. Their ratio in the unblocked sample (7×10^−6) was increased in the blocked sample to 0.09, indicating an enrichment of 0.09/7×10^−6=12,600. […]
# [1] = post tinidazole lavage, 16S-C&S, Lactobacillaceae clones
# [2] = post tinidazole lavage, 16S-C&S, target Bacteroidaceae/uc Prevotellaceae
smiles,measurement,setting,value
CCS(=O)(=O)CCn1c([N+](=O)[O-])cnc1C [tinidazole],Clinical status after treatment,"bacterial vaginosis (BV); BV patient (Nugent 10 at acute phase), 500 mg twice a day for 10 days",full remission
same,Amine test after therapy,"bacterial vaginosis (BV); P4, 500 mg bid for 7 days",negative
same,Clinical status one week after completing therapy,"bacterial vaginosis (BV); P4, 500 mg bid for 7 days",entirely asymptomatic
same,Vaginal pH after therapy,"bacterial vaginosis (BV); P4, 500 mg bid for 7 days",4.2
same,Recurrence of BV,"bacterial vaginosis (BV); P4, followed for a month",did not recur
same,Outcome at return within three weeks by Amsel criteria,"bacterial vaginosis (BV); five recurrent BV patients, Nugent scores of 0 except Patient 5",clinical cure
same,non-LB share of isolates in post-tinidazole sample,"vaginal microbiota; FIG. 3, B2, LB-blocked",0.003%
same,ID Clones: L. iners,vaginal microbiota; [1],"L. iners 83%, L."
same,ID Clones: L. jensenii,vaginal microbiota; [1],"jensenii 17%,"
same,Cells/sample,"vaginal microbiota; post tinidazole lavage, 16S-C&S, target Actinobacteria: Actinobacteridae",1.3E+06 Cells/sample
same,Cells/sample,"vaginal microbiota; post tinidazole lavage, 16S-C&S, target Alpha-Proteobacteria",3.4E+04 Cells/sample
same,Cells/sample,vaginal microbiota; [2],3.4E+04 Cells/sample
same,ID Clones,vaginal microbiota; [2],Bacteroides sp.
same,Cells/sample,"vaginal microbiota; post tinidazole lavage, 16S-C&S, target Beta-Proteobacteria",3.4E+04 Cells/sample
same,Cells/sample,"vaginal microbiota; post tinidazole lavage, 16S-C&S, target Broad-spectrum",8.4E+09 Cells/sample
same,Cells/sample,"vaginal microbiota; post tinidazole lavage, 16S-C&S, target Clostridiales Incertae Sedis XI",0 Cells/sample
same,Cells/sample,"vaginal microbiota; post tinidazole lavage, 16S-C&S, target Clostridiales Incertae Sedis XII",0 Cells/sample
same,Cells/sample,"vaginal microbiota; post tinidazole lavage, 16S-C&S, target Coriobacteridae",0 Cells/sample
same,Cells/sample,"vaginal microbiota; post tinidazole lavage, 16S-C&S, target Cross-family Clostridia",0 Cells/sample
same,Cells/sample,"vaginal microbiota; post tinidazole lavage, 16S-C&S, target Enterobacteriales, Pasteurellales, Pseudomonadaceae",3.4E+05 Cells/sample
same,Cells/sample,"vaginal microbiota; post tinidazole lavage, 16S-C&S, target Epsilon-Proteobacteria",3.4E+04 Cells/sample
same,Cells/sample,"vaginal microbiota; post tinidazole lavage, 16S-C&S, target Firmicute: Lactobacillaceae",8.4E+09 Cells/sample
same,Cells/sample,"vaginal microbiota; post tinidazole lavage, 16S-C&S, target Fusobacterium",0 Cells/sample
same,Cells/sample,"vaginal microbiota; post tinidazole lavage, 16S-C&S, target Lachnospiracea uc & incertae sedis Clostridium IVa",0 Cells/sample
same,Cells/sample,"vaginal microbiota; post tinidazole lavage, 16S-C&S, target Megasphaera/Dialister/Veillonella",0 Cells/sample
same,Cells/sample,"vaginal microbiota; post tinidazole lavage, 16S-C&S, target Mobiluncus",0 Cells/sample
same,Cells/sample,"vaginal microbiota; post tinidazole lavage, 16S-C&S, target Mycoplasmatales",0 Cells/sample
same,Cells/sample,"vaginal microbiota; post tinidazole lavage, 16S-C&S, target Peptostreptococcaceae",0 Cells/sample
same,Cells/sample,"vaginal microbiota; post tinidazole lavage, 16S-C&S, target Staphylococcus",0 Cells/sample
same,Cells/sample,"vaginal microbiota; post tinidazole lavage, 16S-C&S, target Streptococcus",0 Cells/sample
same,Cells/sample,"vaginal microbiota; post tinidazole lavage, 16S-C&S, target uc Clostridiales (BVAB283 subset)",0 Cells/sample
